The values that follow come from patent US9458508B2, “Methods and compositions for the diagnosis and treatment of cancer resistant to anaplastic lymphoma kinase (ALK) kinase inhibitors” (St. Jude Children's Research Hospital, priority 2010, dated 2016).

The test system of the test is parental BaF3 cells. In words: cells. As to conditions: Mus musculus, BaF3, 72 h.

Procedure: Parental BaF3 cells (“BaF3”) were also tested as a normal, non-ALK-dependent cell control.

On to `C[C@@H](Oc1cc(-c2cnn(C3CCNCC3)c2)cnc1N)c1c(Cl)ccc(F)c1Cl` [PF-02341066], for which the IC50 was determined as 1460 nM.
